Laboratory results reported in patent US20260146044A1, “AROMATIC COMPOUND, PHARMACEUTICAL COMPOSITION CONTAINING SAME, AND USE THEREOF” (Increland, priority 2023, published 2026).

How the values were obtained:
[1] = Pharmacokinetic experiment on mice (iv and ig); format: in vivo; settings: mouse, plasma, BALB/c Mice; for bioavailability: ig 5.00 mg/kg vs iv 1.00 mg/kg, read-out: Oral bioavailability Fobs (%); for Cmax: read-out: Peak plasma concentration Cmax
[2] = system: IMQ-induced psoriasis model; assay: IMQ-induced psoriasis model, skin thickening and ear thickening; format: in vivo, BALB/c mice; settings: BID, gavage; for IMQ-induced psoriatic ear thickening, P compared with the Model group: FIG. 2
Procedure: Male BALB/c mice aged 6-8 weeks were randomly grouped into 15 groups or 6 groups after 1 week of adaptive feeding: control group, imiquimod model group (i.e., Model group), clobetasol propionate group (i.e., CLO group), the compounds of the present invention: TM-57 ICL-004192 (3 mg/kg, 10 mg/kg, 30 mg/kg), TM-109ICL-004240 (3 mg/kg, 10 mg/kg, 30 mg/kg, 60 mg/kg), TM-101ICL-004250 (3 mg/kg, 10 mg/kg, 30 mg/kg, 60 mg/kg), with 5 mice per group, and the Control group, the imiquimod model group (i.e., the Model group), and the clobetasol propionate group (i.e., the CLO group). On day 0, each of the mice was unhaired on the back using a hair removal cream, with a hair removal area of 2.5 cm×1.5 cm. On the first day, IMQ cream was used for modeling, and a corresponding drug was administered by gavage for treatment. The compounds of the present invention were administered by gavage at corresponding doses twice daily in the morning and evening with an interval of 8 h between two administrations. 2 h after the first gavage on a same day, the IMQ cream was applied to the to-be-unhaired site on the back and the left ear of each of the mice, with doses of the IMQ cream administered to the to-be-unhaired site on the back and the left ear being 62.5 mg and 7.5 mg, respectively. 5 h after the IMQ cream was applied to the to-be-unhaired area on the back and the left ear of each of the mice in the CLO group, clobetasol propionate cream was applied once daily. The blank group and the IMQ group were administrated with a vehicle twice daily in the morning and evening with an interval of 8 h between two administrations. […]
Referring to the Psoriasis Area and Severity Index (PASI) scoring criteria, the psoriasis, erythema, and thickness of skin lesions on the back were scored from 0 to 4 every morning from day 1 of modeling, with the scoring criteria as shown in Table 1. […] The ear thickness of the left ear of the mouse was measured using a digital vernier caliper three times every morning from day 1, to obtain a mean value.

[3] = Pharmacokinetic experiment on SD rats (iv and ig); format: in vivo; settings: Sprague-Dawley, rat, plasma; for Cmax: read-out: Peak plasma concentration Cmax; for bioavailability: ig 5.00 mg/kg vs iv 1.00 mg/kg, read-out: Oral bioavailability Fobs (%)
Procedure: Pharmacokinetic experiment on SD rats: in this experiment, two administration modes: oral intragastric administration and tail vein injection were selected. Each of the compounds of the present patented invention was administered at an oral dose of 5 mg/kg at an administration volume of 10 mL/kg. […] Appropriate amounts of Solutol and H2O were proportionally added sequentially, and fully mixed ultrasonically by vortexing, to prepare a clear drug solution at 0.5 mg/mL. ICL004-protodrug was administered by intravenous injection at a dose of 1 mg/kg at an administration volume of 10 mL/kg. Right before use, an appropriate amount of the drug was accurately weighed, to prepare a final volume of 20% PEG 400 and 80% Saline. Appropriate amounts of PEG 400 and Saline were proportionally added sequentially, and fully mixed ultrasonically by vortexing, to prepare a clear drug solution at 0.1 mg/mL.
6 SD rats, each with body weight of 180-220 g, were randomly grouped into 2 groups. After fasting but with free access to water overnight, each […] in the first group was administered by gavage. 200 μL of blood was sampled from its eye socket into an anticoagulant tube respectively at each time point of 15 min, 30 min, 1 h, 2 h, 4 h, 6 h, 8 h, and 24 h after administration. Within one h, each of the blood samples was centrifuged at 10,000 rpm at 4° C. for 20 min (the sample was stored on an ice box prior to the centrifugation), and the supernatant (i.e., the plasma) was stored in a refrigerator at −20° C. for LC-MS/MS analysis. 200 μL of blood was sampled from the eye socket of each […] in the second group into an anticoagulant tube respectively at each time point of 5 min, 15 min, 30 min, 1 h, 2 h, 4 h, 8 h, and 24 h after administration by intravenous injection. Within one h, each of the blood samples was centrifuged at 10,000 rpm at 4° C. for 20 min (the blood sample was stored on an ice box prior to the centrifugation), and the supernatant, i.e., the plasma, was stored in a refrigerator at −20° C. for LC-MS/MS analysis.

Structure (SMILES) | bioavailability ([1]; po) [%] | AUC ([1]; po, ig, 5.00 mg/kg) [ng·h/mL] | AUC(0-inf) ([1]; po, ig, 5.00 mg/kg) [ng·h/mL] | Cmax ([1]; po, ig, 5.00 mg/kg) [ng/mL] | AUC ([1]; iv, 1.00 mg/kg) [ng·h/mL] | AUC(0-inf) ([1]; iv, 1.00 mg/kg) [ng·h/mL] | Cmax ([1]; iv, 1.00 mg/kg) [ng/mL] | IMQ-induced psoriatic skin thickening, P compared with the Model group ([2]; 30 mg/kg, FIG. 1) | IMQ-induced psoriatic ear thickening, P compared with the Model group ([2]; 30 mg/kg) | AUC ([3]; iv, 1.00 mg/kg) [ng·h/mL] | AUC(0-inf) ([3]; iv, 1.00 mg/kg) [ng·h/mL] | Cmax ([3]; iv, 1.00 mg/kg) [ng/mL] | bioavailability ([3]; po) [%] | AUC ([3]; po, ig, 5.00 mg/kg) [ng·h/mL] | AUC(0-inf) ([3]; po, ig, 5.00 mg/kg) [ng·h/mL] | Cmax ([3]; po, ig, 5.00 mg/kg) [ng/mL] | IMQ-induced psoriatic ear thickening, P compared with the Model group ([2]; 60 mg/kg)
Cc1nn(C2CCC(=O)NC2=O)c2cccc(N3CC4CN(C[C@H]5CC[C@H](n6cc7cc(NC(=O)c8cnn9cccnc89)c(N8CCOCC8)cc7n6)CC5)CC4C3)c12 (stereo partly shown) [TM-57] | 48.4 | 1770 | 1920 | 342 | 790 | 795 | 276 | < 0.01 | < 0.0001 | 499 | 526 | 225 | 46.6 | 580 | 1230 | 79.7 | –
Cc1nn(C2CCC(=O)NC2=O)c2cncc(N3CCN(C[C@H]4CC[C@H](n5cc6cc(NC(=O)c7cnn8cccnc78)c(N7CCO[C@H](C)C7)cc6n5)CC4)CC3)c12 (stereo partly shown) [TM-109] | 63 | 10100 | 10100 | 1300 | 3220 | 3220 | 605 | – | – | 537 | 776 | 101 | 7.87 | 268 | 306 | 23 | < 0.01
